These results are taken from patent US12268682B2, “Anticancer drug FL118 formulation for treatment of human cancer” (CANGET BIOTEKPHARMA, LLC, priority 2019, dated 2025).

The conditions of data set [1]: beagle dogs; cited from earlier work.
The test system of data set [2] is control genes (p21cip1/waf1, dihydrofolate reductase, human thrombin receptor, thymidine kinase). The note with it: cited from earlier work.
Another data set concerns Survivin. Description: Intracellular staining of Survivin in patient MM cells. Conditions: FL118-susceptible RR patients, 16 h. It is filed as cell-based, human. How it is done: Intracellular staining Survivin and Mcl-1: Mcl-1 and survivin expression levels in MM cells of BMMNC patient samples were determined by intracellular staining followed by flow cytometry. Untreated or FL118 treated (16 h) patient samples were washed twice with cold PBS. Cells were blocked with human immunoglobulin and stained for CD38 (BD biosciences), CD138 (Bio-Connect) and live/dead cell marker. In addition, LUC- and Green fluorescence protein (GFP)-transduced UM9 MM-cells were incubated alone or a monolayer of 1×10^6 BMMSCs in a 100 mm dish for 24 or 48 hours. Non-adherent cells were harvested by taking culture medium from plates and washing plates with PBS by gentle pipetting. Adherent cells were harvested using Stem-Pro Accutase. Both adherent and non-adherent cells were blocked with human immunoglobulin and stained for CD105 (Synobiotechnology) and live/dead marker. The stained patient cells and UM9 cells were then fixated in 4% formaldehyde for 15 minutes at room temperature. After fixation, the cells were placed in ice cold 90% methanol for 30 minutes on ice for permeabilization and subsequently stored at −20° C. […] Expression levels were analyzed in viable CD38^+ CD138^+ patient MM cells and GFP^+ CD105^− UM9-cells using flow cytometry.

In a further data set the target is topoisomerase I (Top1) (Homo sapiens, UniProt P11387). The note with it: cited from earlier work.
Another data set deals with MM cell lines. The data set is described as follows: BLI-based cytotoxicity assay using LUC-transduced MM cell lines. Also noted: species or system human. As to the method:
Cell lines and culture: Luciferase (LUC)-transduced MM cell lines RPMI 8226, JJN3, UM9, MM1.s, U266, L363, and OPM-2 were cultured in RPMI 1640 (Life Technologies), supplemented with 10% heat-inactivated HyClone FetalClone I serum (GE Healthcare Life Sciences) and (penicillin, 10.000 U/mL; streptomycin, […]; InVitrogen,). HS-5 was cultured in DMEM (Life Technologies), supplemented with heat-inactivated FBS (Sigma) and antibiotics.

The next data set deals with UM9 cell line. The data set is described as follows: BLI-based cytotoxicity assay with CAR T-cells or CTL 3AB11 on UM9. It is filed as cell-based, human. The text has this:
CD138-, BCMA- and CD38-specific CAR T-cells: All CAR T-cells with different specificities were generated with co-stimulatory domains 4-1BB, CD28, or CD28 supplemented with a separate 4-1BB ligand (28zBBL), with the technology as described previously (Kim J H, et al. PLoS One. 2011, 6:e18556; Drent E, et al. Clin Cancer Res. 2019, 25:4014-4025). CD138 CAR T-cells (nBT) were produced using single chain variable fragment (scFv) sequences of the published nBT062 monoclonal antibody (Ikeda H, et al. Clin Cancer Res. 2009, 15:4028-4037). BCMA CAR T-cells were produced using published scFv sequences derived from C11D5.3 monoclonal antibody (US2012/0082661 A1 (Shancer Z, et al. Antib Ther. 2018, 1:19-25) or from BCMA02 CAR (product name bb2121, WO 2016/094304 A2) (Raje N, et al. N Engl J Med. 2019, 380:1726-1737; Friedman K M, et al. Hum Gene Ther. 2018, 29:585-601). The generation and functional analysis of CD38 CAR T-cells with low (B1) or high (028) CD38-affinities has been described previously (Drent E, et al. Clin Cancer Res. 2019, 25:4014-4025; Drent E, et al. Mol Ther. 2017, 25:1946-1958). More detailed information on all CAR construct are listed in Table 1. CAR T-cells were tested 10-14 days after CAR transduction or frozen until testing. After thawing, CAR T-cells were cultured for 16 hours in 60 U/mL recombinant human IL-2 (R&D Systems)-containing culture medium (RPMI 1640 supplemented with heat-inactivated FBS (Sigma) and antibiotics), before using in experiments. Flow cytometry analysis, to determine the transduction efficiency and phenotypic profile of each CAR T-cell, was performed as previously described (Drent E, et al. Clin Cancer Res. 2019, 25:4014 4025; Drent E, et al. Mol Ther. 2017, 25:1946-1958) and illustrated in FIG. 10.
3AB11 was expanded using a feeder cell-cytokine mixture and cryopreserved until further use as described previously (Spaapen R, et al. Clin Cancer Res. 2007, 13:4009-4015).

Data set [3] relates to survivin, Mcl-1, XIAP and cIAP2. Conditions: cited from earlier work.
In another data set the test system is BMMSCs. The data set is described as follows: BMMSC viability (Cell TiterGlo). As to the method: A pool (n=12) of newly diagnosed-MM patient derived BMMSCs were treated with serial concentrations of FL118. Cell viability was determined by Cell TiterGlo after indicated period of time. Error bars represent the SD of three independent experiments.
Bone Marrow derived Mesenchymal stromal cells (BMMSCs): Diagnostic BM aspirations from MM patients were used to isolate BMMNCs and culture adherent BMMSCs as described elsewhere (Prins H J, et al. Tissue Eng Part A. 2009, 15:3741-3751). To minimalize inter-individual variation, all experiments were performed with cells from a pool of BMMSCs derived from twelve MM patients at passage 3.

The test system of another data set is human tumors. The note with it: cited from earlier work.
A further data set relates to PDX tumors. Conditions: in vivo; cited from earlier work.

Sequence of topoisomerase I (Top1) (P11387 whole entry, species assumed): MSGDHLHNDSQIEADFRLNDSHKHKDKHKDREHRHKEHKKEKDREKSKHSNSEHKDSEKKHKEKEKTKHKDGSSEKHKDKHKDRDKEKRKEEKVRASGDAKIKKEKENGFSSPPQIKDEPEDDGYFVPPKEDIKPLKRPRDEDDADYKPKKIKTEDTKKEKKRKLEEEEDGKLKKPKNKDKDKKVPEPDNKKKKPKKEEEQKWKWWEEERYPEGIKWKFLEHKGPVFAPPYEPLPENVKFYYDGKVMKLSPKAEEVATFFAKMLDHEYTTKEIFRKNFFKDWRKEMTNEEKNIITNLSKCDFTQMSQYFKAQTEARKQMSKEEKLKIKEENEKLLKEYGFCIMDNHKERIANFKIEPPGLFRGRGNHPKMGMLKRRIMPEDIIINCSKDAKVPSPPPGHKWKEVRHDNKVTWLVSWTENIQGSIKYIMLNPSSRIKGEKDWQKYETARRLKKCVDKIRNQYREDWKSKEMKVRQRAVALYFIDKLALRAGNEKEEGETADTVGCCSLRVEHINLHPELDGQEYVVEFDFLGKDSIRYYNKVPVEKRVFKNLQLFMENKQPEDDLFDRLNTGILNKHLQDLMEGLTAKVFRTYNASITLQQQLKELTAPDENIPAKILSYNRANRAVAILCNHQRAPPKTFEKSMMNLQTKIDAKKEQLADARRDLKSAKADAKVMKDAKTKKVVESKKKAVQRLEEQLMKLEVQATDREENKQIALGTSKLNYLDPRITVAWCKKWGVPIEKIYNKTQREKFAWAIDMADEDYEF

For `CC[C@@]1(O)C(=O)OCc2c1cc1n(c2=O)Cc2cc3cc4c(cc3nc2-1)OCO4` [FL118], the “hematopoietic and biochemical toxicities” value in data set [1] is “very low”. For the same compound, in data set [2], the “inhibitory effects on control genes” value is given as “no inhibitory effects”. Further, the “levels of Survivin expression” value in the data set on Survivin is reported as “significantly reduced”. Moreover, the “concentration level for effects on Top1 activity” value at topoisomerase I (Top1) was “μM levels”. Besides, the “lysis of MM cell lines in the presence of BMMSCs” value with MM cell lines (5 of 6 MM cell lines) is on record as “not reduced, or even increased”. The “stroma-cell induced drug resistance against bortezomib and doxorubicin” value in the data set with MM cell lines (MM1.s and UM9 co-cultured with BMMSCs or HS-5, 48 hours) is given as “effectively abrogated”. Besides, in the data set on MM cell lines (MM cell lines, 48 hours), the “combination activity with melphalan or bortezomib” value was “at least additive activity”. For the same compound, in the data set with MM cell lines (cell line UM9), the “lysis of MM cell line in the presence of BMMSCs” value is “minimal reduction”. The “BMMSC protective effect against CTL 3AB11 lysis” value in the data set on UM9 cell line (24 hours) is on record as “completely abrogated”. For the same compound, in the data set on UM9 cell line (Chou-Talalay), the “combination effect with CTL 3AB11” value is listed as “synergistic fashion”. The “combination index (CI) values, FL118 and CAR T-cells” value in the data set on UM9 cell line (Chou-Talalay, especially in the presence of BMMSCs) was “below 1”. For the same compound, the “BMMSC-mediated protection against CAR T-cells” value in the data set with UM9 cell line (combined with CAR T-cells, even at doses as low as 3 nM) is listed as “effectively modulated”. The “lysis of MM-cells by FL118 alone” value with UM9 cell line (regardless of the presence of BMMSCs, 24 hours) was “dose-dependent lysis”. For the same compound, the “inhibition of expression of survivin, Mcl-1, XIAP and cIAP2” value in data set [3] was “selectively inhibits”. In the data set with BMMSCs (serial concentrations of FL118), the “toxicity against BMMSCs” value is recorded as “minimal toxicity”. The “toxic effects on BMMSCs” value in the data set with BMMSCs (up to a dose of 100 nM) was “no toxic effects”. Further, in the data set on human tumors (animal models), the “activity on irinotecan and topotecan-resistant human tumors” value is “effectively overcomes”. The tumor elimination result in the data set with human tumors (two-month experimental period) is “eliminate small and large volume human tumors without relapse in a high percentage of mice”. Moreover, the “antitumor activity compared with FDA-approved anticancer drugs” value in the data set with human tumors (versus irinotecan, topotecan, doxorubicin, 5-FU, gemcitabine, docetaxel, oxaliplatin, cytoxan, cisplatin) is “significantly better antitumor activity”. For the same compound, in the data set with PDX tumors, the “effect on PDX tumors resistant/non-sensitive to FL118 and gemcitabine, combination with gemcitabine” value was “eliminated the PDX tumors”; the “effect on PDX tumors, FL118 alone” value is on record as “effectively eliminated PDX tumors”.
